From patent publication US4994465A, “Antihyperlipidemic and antiatherosclerotic trisubstituted urea compounds” (Warner-Lambert Company, priority 1990, dated 1991)

Target: T1, acyl-CoA:cholesterol acyltransferase (ACAT) (Oryctolagus cuniculus, UniProt G1SFD9)
T1 construct: a tissue preparation containing rabbit intestinal microsomes; from tissue; host or cells: rabbit intestinal microsomes
T1 sequence (G1SFD9 1-524): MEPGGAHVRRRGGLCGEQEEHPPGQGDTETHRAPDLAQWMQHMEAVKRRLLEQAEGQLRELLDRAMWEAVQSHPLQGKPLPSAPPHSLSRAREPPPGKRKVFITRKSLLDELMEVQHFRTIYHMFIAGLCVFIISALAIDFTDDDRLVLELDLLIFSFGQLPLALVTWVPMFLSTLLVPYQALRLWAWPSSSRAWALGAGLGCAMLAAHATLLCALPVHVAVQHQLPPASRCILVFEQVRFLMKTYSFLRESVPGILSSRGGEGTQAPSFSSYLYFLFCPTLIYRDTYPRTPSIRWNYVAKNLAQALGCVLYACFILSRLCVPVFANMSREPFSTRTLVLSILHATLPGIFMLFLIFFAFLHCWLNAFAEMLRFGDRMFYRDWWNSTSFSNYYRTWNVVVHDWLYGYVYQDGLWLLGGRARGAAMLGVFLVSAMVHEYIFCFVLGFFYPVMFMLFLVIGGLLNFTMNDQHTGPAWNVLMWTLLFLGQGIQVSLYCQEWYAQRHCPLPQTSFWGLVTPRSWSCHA
Assay: ACAT inhibition in vitro: radiolabeled cholesterol oleate formed from radiolabeled oleic acid in rabbit intestinal microsomes
Format: biochemical
Conditions: concentration required to inhibit 50% expression of the enzyme
Experimental: The ability of representative compounds of the present invention to inhibit ACAT was measured using an in vitro test more fully described in Field, F. J. and Salone, R. G., Biochemica et Biophysica 712:557-570 (1982). The test assesses the ability of a test compound to inhibit the acylation of cholesterol by oleic acid by measuring the amount of radiolabeled cholesterol oleate formed from radiolabeled oleic acid in a tissue preparation containing rabbit intestinal microsomes.
The data appear in Table 1 where they are expressed in IC50 values; i.e., the concentration of test compound required to inhibit 50% […] of the enzyme.

SMILES	IC50
CC(C)c1cccc(C(C)C)c1NC(=O)N(Cc1ccccc1)CC1(c2ccccc2)CCCC1 [Example 7, N'-[2,6-bis(1-methylethyl)phenyl]-N-benzyl-N-[(1-phenylcyclopentyl)methyl]urea]	0.17 µM
Cc1cccc(C)c1NC(=O)N(Cc1ccccc1)CC(c1ccccc1)c1ccccc1 [Example 2, N'-[(2,6-dimethyl)phenyl]-N-benzyl-N-[(2,2-diphenyl)ethyl]urea]	1.37 µM
O=C(Nc1c(Cl)cccc1Cl)N(Cc1ccccc1)CC1(c2ccccc2)CCCC1 [Example 5, N'-(2,6-dichlorophenyl)-N-benzyl-N-[(1-phenylcyclopentyl)methyl]urea]	0.051 µM
O=C(Nc1ccc(F)cc1F)N(Cc1ccccc1)CC(c1ccccc1)c1ccccc1 [Example 1, N'-(2,4-difluorophenyl)-N-benzyl-N-[(2,2-diphenyl)ethyl]urea]	0.29 µM
O=C(Nc1ccc(F)cc1F)N(Cc1ccccc1)CC1(c2ccccc2)CCCC1 [Example 4, N'-(2,4-difluorophenyl)-N-benzyl-N-[(1-phenylcyclopentyl)methyl]urea]	0.09 µM
CC(C)c1cccc(C(C)C)c1NC(=O)N(Cc1ccccc1)CC(c1ccccc1)c1ccccc1 [Example 3, N'-[2,6-bis(1-methylethyl)phenyl]-N-benzyl-N-[(2,2-diphenyl)ethyl]urea]	1.3 µM
Cc1cc(C)c(NC(=O)N(Cc2ccccc2)CC2(c3ccccc3)CCCC2)c(C)c1 [Example 6, N'-(2,4,6-trimethylphenyl)-N-benzyl-N-[(1-phenylcyclopentyl)methyl]urea]	0.08 µM

Now from value to compound:

IC50	SMILES
0.11 µM	CCCCCCCN(CC1(c2ccccc2)CCCC1)C(=O)Nc1c(C(C)C)cccc1C(C)C [Example 9, N'-[2,6-bis(1-methylethyl)phenyl]-N-heptyl-N-[(1phenylcyclopentyl)methyl]urea]
0.17 µM	CCCCCCCN(CC(c1ccccc1)c1ccccc1)C(=O)Nc1ccc(F)cc1F [Example 13, N'-(2,4-difluorophenyl)-N-heptyl-N-[(2,2-diphenyl)ethyl]urea]
0.061 µM	CCCCCCCN(CC1(c2ccccc2)CCCC1)C(=O)Nc1c(C)cccc1C [Example 10]
0.059 µM	Cc1cccc(C)c1NC(=O)N(Cc1ccccc1)CC1(c2ccccc2)CCCC1 [Example 8, N'-[(2,6-dimethyl)phenyl]-N-benzyl-N-[(1-phenylcyclopentyl)methyl]urea]
0.31 µM	CCCCCCCN(CC1(c2ccccc2)CCCC1)C(=O)Nc1ccc(F)cc1F [Example 11, N'-(2,4-difluorophenyl)-N-heptyl-N-[(1-phenylcyclopentyl)methyl]urea]
1.3 µM	CCCCCCCN(CC(c1ccccc1)c1ccccc1)C(=O)Nc1c(C)cccc1C [Example 12, N'-[(2,6-dimethyl)phenyl]-N-heptyl-N-[(2,2-diphenyl)ethyl]urea]
